Laboratory results from patent US4672036A, “Pure cultures of Kibdelsporangium aridum Shearer gen. nov., sp. nov. ATCC 39323 and mutants thereof” (SmithKline Beckman Corporation, priority 1985, dated 1987).
In brackets after ≈: the same amount, converted by molar mass. Several values for one entry are separate records, joined by “and”; a condition that tells them apart may be missing. Identical values can stand only once. Like-named read-outs stand apart in the source and are kept apart here.

How the values were obtained:
Staph. aureus HH127 = format: cell-based; details: Staphylococcus aureus
Staph. aureus SK & F 910 = format: cell-based; details: Staphylococcus aureus
Strep. faecilis HH34358 = format: cell-based
[1] = test system: Kleb. pneumoniae 4200 (SK & F 798); format: cell-based; details: Klebsiella pneumoniae
[2] = test system: Pseudomonas aeruginosa HH63; format: cell-based; details: Pseudomonas aeruginosa, HH63
[3] = test system: Serratia marcesens ATCC 13880; format: cell-based; details: Serratia, ATCC13880
[4] = test system: Enterobacter cloacae HH31254; format: cell-based; details: Enterobacter cloacae, HH31254
[5] = test system: Staph. epidermidis SK & F 2479; format: cell-based; details: Staphylococcus epidermidis
[6] = test system: Listeria monocytogenes SK & F 2255; format: cell-based; details: Listeria monocytogenes
[7] = test system: Staph. epidermidis SK & F 651; format: cell-based; details: Staphylococcus epidermidis
Staph. aureus SK & F 674 = format: cell-based
[8] = test system: Staph. aureus SK & F 1761; format: cell-based; details: Staphylococcus aureus
[9] = test system: Staph. aureus SK & F 2666; format: cell-based; details: Staphylococcus aureus
[10] = test system: Staph. aureus SK & F 2677; format: cell-based; details: Staphylococcus aureus
[11] = test system: Staph. aureus SK & F 2678; format: cell-based; details: Staphylococcus aureus
[12] = test system: Staph. aureus SK & F 2777; format: cell-based; details: Staphylococcus aureus
[13] = test system: Staph. aureus SK & F 2615; format: cell-based; details: Staphylococcus aureus
[14] = test system: Staph. aureus SK & F 2620; format: cell-based; details: Staphylococcus aureus
[15] = test system: Staph. aureus SK & F 2621; format: cell-based; details: Staphylococcus aureus
[16] = test system: Staph. aureus SK & F 2589; format: cell-based; details: Staphylococcus aureus
[17] = test system: Staph. aureus SK & F 2590; format: cell-based; details: Staphylococcus aureus
[18] = test system: Staph. aureus SK & F 2591; format: cell-based; details: Staphylococcus aureus
[19] = test system: Staph. aureus SK & F 2592; format: cell-based; details: Staphylococcus aureus
[20] = test system: Staph. aureus SK & F 2595; format: cell-based; details: Staphylococcus aureus
[21] = test system: Staph. aureus SK & F 2596; format: cell-based; details: Staphylococcus aureus
[22] = test system: Staph. aureus SK & F 2597; format: cell-based; details: Staphylococcus aureus
[23] = test system: Bacteroides fragilis ATCC 25285; format: cell-based; details: Bacteroides fragilis, ATCC25285
B. fragilis H145 = format: cell-based, Bacteroides fragilis; details: Bacteroides fragilis, H145
B. fragilis SK & F 3060 = format: cell-based, Bacteroides fragilis; details: Bacteroides fragilis
[24] = test system: Fusobacterium nucleatum ATCC 25586; format: cell-based; details: Fusobacterium nucleatum, ATCC25586
Staph. aureus 209P = format: cell-based; details: Staphylococcus aureus
[25] = test system: Staph. aureus 209P-Mutant; assay: microbe, parasite or virus in culture; format: cell-based; details: Staphylococcus aureus, 209P
[26] = test system: Staph. aureus SK & F 674-P6 Mutant; assay: microbe, parasite or virus in culture; format: cell-based; details: Staphylococcus aureus
[27] = test system: Staph. epidermidis SK & F 2683; format: cell-based; details: Staphylococcus epidermidis
[28] = test system: Staph. epidermidis SK & F 2265; format: cell-based; details: Staphylococcus epidermidis
Swine in vitro model = assay: swine in vitro model (growth promotant activity)
K. aridum = assay: susceptibility of K. aridum to antibiotics, disk diffusion method; format: cell-based, Kibdelosporangium aridum; details: disk 30 μg
Protocol: Susceptibility of K. aridum to antibiotics was examined by placing BBL susceptibility disks on nutrient agar plates seeded with K. aridum as an overlay. Diameters of the zones of inhibition were measured after incubation for one week at 28° C.
Chlortetracycline ([…]) produced 18 mm zones of inhibition; tetracycline (5 μg) 11-12 mm zones; rifampin (5 μg) 11-15 mm zones; novobiocin (5 μg) 27-28 mm zones. All zones of inhibition contained at least a few resistant colonies.

rumen in vitro model = rumen in vitro model (growth promotant activity); parameters: species or system steer
C. perfringens MCP-2 = assay: microbe, parasite or virus in culture; details: Clostridium perfringens, MCP2
[29] = test system: C. perfringens ATCC 19408; assay: microbe, parasite or virus in culture; details: Clostridium perfringens, ATCC19408

For `CN[C@H](CC(C)C)C(=O)N[C@H]1C(=O)N[C@@H](CC(N)=O)C(=O)N[C@H]2C(=O)N[C@H]3C(=O)N[C@H](C(=O)N[C@H](C(=O)O)c4cc(O)cc(O)c4-c4cc3ccc4O)[C@H](O)c3ccc(c(Cl)c3)Oc3cc2cc(c3O[C@@H]2O[C@H](CO)[C@@H](O)[C@H](O)[C@H]2O[C@H]2C[C@](C)(N)[C@H](O)[C@H](C)O2)Oc2ccc(cc2Cl)[C@H]1O` [Vancomycin, reference compound], the MIC (Staph. aureus HH127; HH127, Table A) was 1.6 µg/mL (≈ 1.1 µM), the MIC (Staph. aureus HH127; HH127, Table B, Methicillin Sensitive) was 1.6 µg/mL (≈ 1.1 µM) and the MIC (Staph. aureus HH127; HH127, Table E) was 3.1 µg/mL (≈ 2.14 µM). For the same compound, the MIC (Staph. aureus SK & F 910; Table A) was 1.6 µg/mL (≈ 1.1 µM), the MIC (Staph. aureus SK & F 910; Table B, Methicillin Sensitive) was 1.6 µg/mL (≈ 1.1 µM) and the MIC (Staph. aureus SK & F 910; Table E) was 3.1 µg/mL (≈ 2.14 µM). It also gave an MIC (Strep. faecilis HH34358) of 3.1 µg/mL (≈ 2.14 µM), an MIC (Strep. faecilis HH34358; Enterococcus faecalis, HH34358) of 6.3 µg/mL (≈ 4.35 µM) and an MIC [1] greater than 100 µg/mL. For the same compound, the MIC [2] was greater than 100 µg/mL, the MIC [3] was greater than 100 µg/mL and the MIC [4] was greater than 100 µg/mL. It also gave an MIC ([5]; Table A) of 1.6 µg/mL (≈ 1.1 µM), an MIC ([5]; Table E) of 6.3 µg/mL (≈ 4.35 µM) and an MIC ([6]; Table A) of 1.6 µg/mL (≈ 1.1 µM). For the same compound, the MIC ([6]; Table E) was 3.1 µg/mL (≈ 2.14 µM), the MIC ([7]; Table A) was 1.6 µg/mL (≈ 1.1 µM) and the MIC ([7]; Table E) was 6.3 µg/mL (≈ 4.35 µM). The MIC (Staph. aureus SK & F 674; Staphylococcus aureus) was 1.6 µg/mL (≈ 1.1 µM), the MIC (Staph. aureus SK & F 674; Table E) was 1.6 µg/mL (≈ 1.1 µM) and the MIC [8] was 1.6 µg/mL (≈ 1.1 µM). For the same compound, the MIC [9] was 1.6 µg/mL (≈ 1.1 µM), the MIC [10] was 1.6 µg/mL (≈ 1.1 µM) and the MIC [11] was 1.6 µg/mL (≈ 1.1 µM). For the same compound, the MIC [12] was 0.8 µg/mL (≈ 0.552 µM), the MIC [13] was 3.1 µg/mL (≈ 2.14 µM) and the MIC [14] was 3.1 µg/mL (≈ 2.14 µM). The MIC [15] was 1.6 µg/mL (≈ 1.1 µM), the MIC [16] was 1.6 µg/mL (≈ 1.1 µM) and the MIC [17] was 1.6 µg/mL (≈ 1.1 µM). It also gave an MIC [18] of 1.6 µg/mL (≈ 1.1 µM), an MIC [19] of 3.1 µg/mL (≈ 2.14 µM) and an MIC [20] of roughly 1.6 µg/mL (≈ 1.1 µM). It also gave an MIC [21] of 3.1 µg/mL (≈ 2.14 µM), an MIC [22] of 3.1 µg/mL (≈ 2.14 µM) and an MIC [23] of 32 µg/mL (≈ 22.1 µM). The MIC (B. fragilis H145) was 32 µg/mL (≈ 22.1 µM), the MIC (B. fragilis SK & F 3060) was 32 µg/mL (≈ 22.1 µM) and the MIC [24] was 32 µg/mL (≈ 22.1 µM). The MIC (Staph. aureus 209P) was 1.6 µg/mL (≈ 1.1 µM), the MIC [25] was greater than 100 µg/mL and the MIC [26] was greater than 100 µg/mL. For the same compound, the MIC [27] was 6.3 µg/mL (≈ 4.35 µM), the MIC [28] was 6.3 µg/mL (≈ 4.35 µM) and the “GLU (glucose)” value (Swine in vitro model) was 190 % Control and 189 % Control. For the same compound, the “LAC (L-lactic acid)” value (Swine in vitro model) was 64 % Control and 59 % Control, the “LYS (lysine)” value (Swine in vitro model) was 48 % Control and 42 % Control and 83 % Control and the “susceptibility of K. aridum” value (K. aridum) was “resistant”. The “LYS (lysine)” value (rumen in vitro model) was 85 % Control and 83 % Control, the MIC (C. perfringens MCP-2) was 0.5 µg/mL (≈ 0.345 µM) and the MIC [29] was 1 µg/mL (≈ 0.69 µM).
